Data from patent publication US8691799B2, “Materials and methods for treatment of cancer and identification of anti-cancer compounds” (priority 2001, dated 2014).
“Also recorded” adds a separate entry of the source. Where two headings read alike, the source gives them in different places.

Columns and labels:
phospho-Akt = assay: Western blotting for phospho-Akt; format: cell-based, human; conditions: A549 and MDA-MB-468 cells, up to 10 μM
Method: (§1) Western Blotting. Treated cell samples were lysed in 30 mM Hepes, pH 7.5, 10 mM NaCl, 5 mM MgCl2, 25 mM NaF, 1 mM EGTA, 1% Triton-X-100, 10% glycerol, 2 mM sodium orthovanadate, 10 μg/ml aprotinin, 10 μg/ml soybean trypsin inhibitor, 25 μg/ml leupeptin, 2 mM PMSF, and 6.4 mg/ml p-nitrophenylphosphate. Phospho-STAT3, phospho-AKT, phospho-MEK, and phospho-p42/p44 MAPK antibodies were obtained from Cell Signaling Technologies, Cambridge, Mass. Antibodies to STAT3, JAK2, and phospho-INK were purchased from Santa Cruz Biotechnology, Santa Cruz, Calif. Phospho-JAK2 antibody came from Upstate Biotechnology, Lake Placid, N.Y. Membranes were blocked in either 5% milk in PBS, pH 7.4, containing 0.1% Tween-20 (PBS-T) or 1% BSA in TBS, pH 7.5, containing 0.1% Tween-20 (TBS-T). Phospho-specific antibodies (excepting P-MAPK and P-JNK) were incubated in 1% BSA in TBS-T while all other antibodies were diluted in 5% milk in PBS-T for either 2 hr at room temperature or overnight at 4° C. HRP-conjugated secondary antibodies (Jackson ImmunoResearch) were diluted in 5% milk in either PBS-T or TBS-T at 1:1000 dilution for one hour at room temperature. Western blots were visualized using enhanced chemiluminescence as described previously (Blaskovich, M. A. et al. Nat. Biotechnol., 2000, 18:1065-1070).

B16-F10 tumors = assay: Antitumor activity, B16-F10 melanoma in C57 black mice; format: in vivo; conditions: 1 mg/Kg/day
Description: Antitumor Activity in the Nude Mouse Tumor Xenograft Model. Nude mice and C57 BL-6 black mice (National Cancer Institute, Bethesda, Md.) were maintained in accordance with the Institutional Animal Care and Use Committee (IACUC) procedures and guidelines. v-Src- and oncogenic H-Ras-transformed NIH 3T3, A549, MDA-MB-468 and Calu-1 cells were harvested, resuspended in PBS and injected s.c. into the right and left flank (10×10^6 cells per flank) of 8 week old female nude mice as reported previously (Sun, J. et al. Cancer Res., 1999, 59:4919-4926). Similarly, murine B16-F10 Melanoma cells were injected s.c. into the right and left flank (10^6 cells per flank) of C57 black mice. When tumors reached about 150 mm^3, animals were randomized (five animals per group; two tumors per animal) and dosed i.p. with 0.2 ml once daily. Control animals received DMSO (20%) vehicle whereas treated animals were injected with JSI-124 (1 mg/kg/day) in 20% DMSO in water. The tumor volumes were determined by measuring the length (l) and the width (w) and calculating the volume (V=1w^2/2) as described previously (Sun, J. et al. Cancer Res., 1999, 59:4919-4926). Statistical significance between control and treated animals were evaluated by using Student's t-test. […] Percent surviving mice was determined by monitoring the death of mice until all mice died. […]

JAK2 = assay: Western blotting for JAK2 protein levels; format: cell-based, human; conditions: A549 and MDA-MB-468 cells
Method: as §1

phosphotyrosine STAT3 = assay: Western blotting for phosphotyrosine STAT3 in cancer cell lines; format: cell-based, human
Method: as §1
Immunoprecipitation of STAT3. A549 cells were treated for 4 hr with vehicle or JSI-124, then lysed in 150 mM Hepes, pH 7.5, 150 mM NaCl, 1 mM EDTA, 0.5% Nonidet P-40 (NP-40), 10% glycerol, 5 mM NaF, 1 mM DTT, 1 mM PMSF, 2 mM sodium orthovanadate, and 5 μg/ml leupeptin. Sample lysates were collected and cleared, then 500 μg of lysate was immunoprecipitated with 50 ng STAT3 antibody overnight at 4° C. then rocked with 25 μl Protein A/G PLUS agarose (Santa Cruz Biotechnology) for 1 hr at 4° C. Samples were washed four times with lysis buffer then boiled in 2×SDS-PAGE sample buffer and run on 10% SDS-PAGE gel. Protein was transferred to nitrocellulose and then blotted as above for both phospho-specific STAT3 and STAT3.

B16-F10 melanoma = assay: Mouse survival, B16-F10 melanoma in C57 black mice; format: in vivo; conditions: 1 mg/Kg/day for 25 days, B16-F10 s.c.
Description: Antitumor Activity in the Nude Mouse Tumor Xenograft Model. Nude mice and C57 BL-6 black mice (National Cancer Institute, Bethesda, Md.) were maintained in accordance with the Institutional Animal Care and Use Committee (IACUC) procedures and guidelines. v-Src- and oncogenic H-Ras-transformed NIH 3T3, A549, MDA-MB-468 and Calu-1 cells were harvested, resuspended in PBS and injected s.c. into the right and left flank (10×10^6 cells per flank) of 8 week old female nude mice as reported previously (Sun, J. et al. Cancer Res., 1999, 59:4919-4926). Similarly, murine B16-F10 Melanoma cells were injected s.c. into the right and left flank (10^6 cells per flank) of C57 black mice. When tumors reached about 150 mm^3, animals were randomized (five animals per group; two tumors per animal) and dosed i.p. with 0.2 ml once daily. Control animals received DMSO (20%) vehicle whereas treated animals were injected with JSI-124 (1 mg/kg/day) in 20% DMSO in water. The tumor volumes were determined by measuring the length (l) and the width (w) and calculating the volume (V=1w^2/2) as described previously (Sun, J. et al. Cancer Res., 1999, 59:4919-4926). Statistical significance between control and treated animals were evaluated by using Student's t-test. For the mouse survival experiments, C57 BL-6 black mice were implanted s.c. with B16-F10 cells (10^5 to 10^6 cells per flank). On day 5 after implantation the mice were randomized (6 animals per group) and treated with either vehicle or JSI-124 (1 mg/Kg/day) for 25 days. Percent surviving mice was determined by monitoring the death of mice until all mice died. Two experiments of 12 animals each (6 control and 6 treated with JSI-124) were carried out. For statistical analysis: for each of the two experiments, mice receiving JSI-124 were compared to those receiving vehicle control with respect to survival using the permutation log rank test as implemented in the statistical software package, ProcStatXact (p-values are two sided and exact).

phospho-Erk1/2 = assay: Western blotting for phospho-Erk1/2; format: cell-based, human; conditions: A549 and MDA-MB-468 cells, up to 10 μM
Method: as §1

With `CC(C)(O)/C=C/C(=O)[C@](C)(O)[C@H]1[C@H](O)C[C@@]2(C)[C@@H]3CC=C4[C@@H](C=C(O)C(=O)C4(C)C)[C@]3(C)C(=O)C[C@]12C` [JSI-124, cucurbitacin I] the phospho-Akt levels (phospho-Akt) was “no inhibitory effect”, the “average size of B16-F10 tumors” value (B16-F10 tumors) was 588±94 and the “inhibition of B16-F10 tumor growth” value (B16-F10 tumors) was 56%. For the same compound, the JAK2 protein levels (JAK2) was “no effect on the protein levels of STAT3 and JAK2”, the “levels of tyrosine phosphorylated STAT3 (Western blot)” value (phosphotyrosine STAT3; 10 μM, 4 hr, A549, MDA-MB-468, MDA-MB-231, Panc-1 and v-Src NIH 3T3 cells) was “very effective at reducing the levels of tyrosine phosphorylated STAT3” and the “phosphotyrosine STAT3 levels after STAT3 immunoprecipitation” value (phosphotyrosine STAT3; 10 μM, 4 hr, A549 and MDA-MB-468 cells) was “reduced phosphotyrosine STAT3 to barely detectable levels”. For the same compound, the “levels of tyrosine phosphorylated STAT3, various concentrations” value (phosphotyrosine STAT3; A549 and MDA-MB-468 cells, 0-10 μM, 4 hr) was “reduction of the levels of tyrosine phosphorylated STAT3; also recorded: suppression of phospho-STAT3 levels in both cell lines”, the “inhibition of phospho STAT3 levels (in words)” value (phosphotyrosine STAT3; A-549 cells, 0-10 μM) was “inhibits both phospho STAT3 and phospho JAK2 levels” and the IC50 (phosphotyrosine STAT3; A-549 cells, Western blotting, read-out: IC50 for phospho-STAT3) was 200 nM. For the same compound, the IC50 (phosphotyrosine STAT3; read-out: IC50 as suppressor of the JAK/STAT3 tumor survival pathway) was 200 nM, the “T50 (day until which 50% of mice survived)” value (B16-F10 melanoma) was 34 days and the “T50 increase versus vehicle” value (B16-F10 melanoma) was 13 days. The “day by which all mice died” value (B16-F10 melanoma) was 42 days, the “day by which none of the treated mice were dead” value (B16-F10 melanoma) was 23 days and the phospho-Erk1/2 levels (phospho-Erk1/2) was “no inhibitory effect; also recorded: increased the levels of phosphorylation”.
